The results in this text go back to ChEMBL document CHEMBL1201862, “PubChem BioAssay data set” (2004).

What all share (assay): growth of human tumour cells (NCI), 48 h
Test [1] relates to SW-620.
Test [2] concerns SF-539.
The subject of test [3] is NCI-H460.
The test system of test [4] is U-251.
The test system of test [5] is HCT-116.
The subject of test [6] is HL-60.
The test system of test [7] is CCRF-CEM.
Test [8] has as its system SF-295.
The subject of test [9] is OVCAR-5.
In test [10] the test system is HCT-15.
Test [11] deals with LOX IMVI.
The test system of test [12] is SK-MEL-2.
Test [13] relates to KM12.
In test [14] the test system is HOP-92.
For test [15], the system named is A549.
Test [16] relates to ACHN.
Test [17] has as its system BT-549.
Test [18] concerns MDA-N.
Test [19] deals with UO-31.

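Briefly, cells in 96-well plates were exposed to five compound concentrations for 48 h, and endpoints were estimated by linear interpolation. GI50: concentration for 50% inhibition of growth.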 Active and inactive are the calls of the source. Cut-off read from the data, not from the text of the source: active = GI50 up to about 1.1 µM and inactive = higher.

Consider `C[C@@H](CCO)OC1OC(COC(=O)C(C)(C)C)C(OC(=O)C(C)(C)C)C(OC(=O)C(C)(C)C)C1OC(=O)C(C)(C)C` (stereo partly specified), for which the GI50 in [1] is 51.1 µM (inactive); in test [2] it was 33.4 µM (inactive); in test [3], 16.1 µM (inactive); in [4] it was 16.7 µM (inactive); in test [5] it was 18 µM (inactive); in test [6] it was 5.89 µM (inactive). Besides, the GI50 in test [7] was 33.7 µM (inactive); in [8] it was 4.13 µM (inactive); in [9], > 100 µM (inactive); in [10], 32.4 µM; in [11] it was 51.4 µM (inactive); in [12], 43.6 µM (inactive). Also, the GI50 in test [13] was > 10 µM (inactive); in [14], 13.2 µM (inactive); in [15] it was 14.1 µM (inactive); in test [16], 34.2 µM (inactive); in [17] it was 73.5 µM (inactive).
`CCOC(=O)c1nc2ccc(C(F)(F)F)cc2nc1NCc1ccc(F)cc1`: the GI50 is 34.1 µM (inactive) in test [1]; 80 µM (inactive) in test [2]; 19.2 µM (inactive) in test [3]; 35.7 µM (inactive) in test [4]; 35.9 µM (inactive) in [5]; 29.6 µM (inactive) in test [6]. Also, the GI50 is 24.9 µM (inactive) in [7]; 25.4 µM (inactive) in [18]; 75.5 µM (inactive) in test [8]; 64.3 µM (inactive) in test [9]; 29 µM (inactive) in [19]; 29.4 µM in test [10]. In addition, the GI50 is 26.1 µM (inactive) in [11]; 59.4 µM (inactive) in test [12]; 58.7 µM (inactive) in test [13]; 4.83 µM (inactive) in [14]; 42.8 µM (inactive) in test [15]; 31.6 µM (inactive) in test [16].
Turning to `C[C@]12CC=CC(=O)[C@@]1(C)CCC(=O)C2`, the GI50 in test [1], in test [2], in test [3], in [4], in test [5] and in test [6] was > 100 µM (inactive) in each case. In addition, the GI50 in test [7], in test [8], in test [9], in test [19], in test [12] and in [13] was > 100 µM (inactive) each time. Besides, the GI50 in [14], in test [15] and in [16] was > 100 µM (inactive) throughout.
As for `COc1ccc(C[P+]2(c3ccccc3)CCCCC2)cc1.O=[N+]([O-])c1ccc(C[P+]2(c3ccccc3)CCCCC2)cc1.[O-][Cl+3]([O-])([O-])[O-].[O-][Cl+3]([O-])([O-])[O-]`, the GI50 in test [1] is 94.6 µM (inactive); in test [2] it was > 100 µM (inactive); in test [3], 71.6 µM (inactive); in test [4] it was > 100 µM (inactive); in test [6], 20.6 µM (inactive); in test [7], > 100 µM (inactive). Moreover, the GI50 in [8] was > 100 µM (inactive); in [9], > 100 µM (inactive); in [19] it was > 100 µM (inactive); in test [10] it was more than 100 µM; in [11], 67.5 µM (inactive); in test [12] it was > 100 µM (inactive). Further, the GI50 in [13] is 75.5 µM (inactive); in test [15] it was > 100 µM (inactive); in [16], > 100 µM (inactive).
For `CCOC(=O)Nn1c(C)nnc1CC#N`, the GI50 in [1], in test [2], in test [3], in test [4], in test [5] and in test [6] was > 100 µM (inactive) each time. Further, the GI50 in test [8] was > 100 µM (inactive); in test [9] it was > 100 µM (inactive); in [19], > 100 µM (inactive); in test [10], more than 100 µM; in test [11], > 100 µM (inactive); in test [12], > 100 µM (inactive). Further, the GI50 in test [13] is > 100 µM (inactive); in test [14], 58.9 µM (inactive); in [15] it was > 100 µM (inactive); in test [16] it was > 100 µM (inactive); in test [17] it was > 100 µM (inactive).
On to `COc1cc2c(cc1C)NC(=O)/C2=C/c1cccnc1`, for which the GI50 in [1] was 20.8 µM (inactive); in test [2] it was 26.9 µM (inactive); in test [3], 9.02 µM (inactive); in test [4] it was 9.55 µM (inactive); in test [5], 12.5 µM (inactive); in test [6], 4.04 µM (inactive). The GI50 in [7] is 7.01 µM (inactive); in test [8] it was 12.5 µM (inactive); in test [9] it was 13.6 µM (inactive); in [10], 11 µM; in [12] it was 16 µM (inactive); in test [13] it was 8.32 µM (inactive). For the same compound, the GI50 in test [14] was 15.3 µM (inactive); in [16] it was 11.9 µM (inactive); in test [17], 22.6 µM (inactive).
With `CC1(C)CC(=O)C2=C(C1)OC1(CC2c2ccc(Cl)cc2)CC(c2ccc(Cl)cc2)C2=C(CC(C)(C)CC2=O)O1` (stereo unspecified), the GI50 in [1] is 20.7 µM (inactive); in [2], 20.5 µM (inactive); in test [3], 14.3 µM (inactive); in test [4] it was 22.5 µM (inactive); in [5] it was 12.2 µM (inactive); in test [6] it was 3.58 µM (inactive). In addition, the GI50 is 15.5 µM (inactive) in test [7]; 22.2 µM (inactive) in [8]; 26.9 µM (inactive) in test [9]; 13.6 µM (inactive) in test [19]; 9.62 µM in test [10]; 20.4 µM (inactive) in test [11]. Moreover, the GI50 in [12] was 18.8 µM (inactive); in [13], 16.7 µM (inactive); in test [14], 3.52 µM (inactive); in test [15], 13.6 µM (inactive); in test [16], 18.5 µM (inactive); in test [17], 20.7 µM (inactive).
As for `CC1(C)C2C=CC1(C)C1(CC2)OCCO1` (stereo unspecified), the GI50 in test [1], in [2], in [3], in test [4], in test [5] and in [6] was > 100 µM (inactive) each time. The GI50 in [7] was > 100 µM (inactive); in test [18] it was > 100 µM (inactive); in test [8], > 100 µM (inactive); in [9], > 100 µM (inactive); in test [19] it was > 100 µM (inactive); in [10], more than 100 µM. Further, the GI50 in [11], in test [12], in [13] and in test [16] was > 100 µM (inactive) each time.
With `CCCCCCc1cc2cc(C(=O)Nc3cccc(C(F)(F)F)c3)c(=N)oc2cc1O`, the GI50 was 2.2 µM (inactive) in test [1]; 1.73 µM (inactive) in test [2]; 0.436 µM (active) in test [3]; 1.33 µM (inactive) in test [4]; 1.55 µM (inactive) in test [5]; 1.44 µM (inactive) in test [6]. The GI50 in test [7] is 0.933 µM (active); in test [8], 2.9 µM (inactive); in test [9], 4.27 µM (inactive); in test [19], 3.14 µM (inactive); in [10], 1.43 µM; in [11] it was 1.26 µM (inactive). In addition, the GI50 in test [12] was 2.17 µM (inactive); in test [13], 2.84 µM (inactive); in [14] it was 0.348 µM (active); in [15] it was 2.06 µM (inactive); in test [16] it was 1.56 µM (inactive); in test [17], 1.66 µM (inactive).
For `CS(=O)(=O)Nc1ccc2c(c1)N(S(C)(=O)=O)CC2CCl` (stereo unspecified), the GI50 in test [1], in test [2], in test [3], in test [4], in test [5] and in test [6] was > 100 µM (inactive) throughout. Besides, the GI50 in [7] was > 100 µM (inactive); in [8], > 100 µM (inactive); in [9], > 100 µM (inactive); in test [19] it was > 100 µM (inactive); in [10] it was more than 100 µM; in test [11], > 100 µM (inactive). Moreover, the GI50 in test [12], in test [13], in test [14], in [15], in test [16] and in test [17] was > 100 µM (inactive) throughout.
Consider `COc1ccc2c3c([nH]c2c1)[C@H](C=C(C)C)N1C(=O)[C@@H]2CCCN2C(=O)[C@@H]1C3` [FUMITREMORGIN], for which the GI50 is > 100 µM (inactive) in test [1]; 29.6 µM (inactive) in test [2]; > 100 µM (inactive) in test [3]; 73.1 µM (inactive) in [4]; > 100 µM (inactive) in test [5]; > 100 µM (inactive) in test [6]. Moreover, the GI50 in test [7] was > 100 µM (inactive); in test [8], 51.3 µM (inactive); in [9], > 100 µM (inactive); in test [19], > 100 µM (inactive); in [10] it was more than 100 µM; in test [11], > 100 µM (inactive). The GI50 was > 100 µM (inactive) in test [12]; > 100 µM (inactive) in [13]; 38.7 µM (inactive) in test [14]; > 100 µM (inactive) in test [15]; 56 µM (inactive) in test [16]; > 100 µM (inactive) in [17].
For `Fc1ccc(C2NC(=S)NC3=C2CCOc2c3ccc3ccccc23)cc1` (stereo unspecified), the GI50 in [1] is 39.1 µM (inactive); in test [2] it was > 100 µM (inactive); in test [3] it was 30.7 µM (inactive); in test [5], 4.85 µM (inactive); in test [6], 19 µM (inactive); in test [7], 54 µM (inactive). Also, the GI50 in test [8] was 34.4 µM (inactive); in test [9], 94.6 µM (inactive); in test [19] it was 26.7 µM (inactive); in test [10], 18.7 µM; in [12] it was 79.6 µM (inactive); in test [13], 21.8 µM (inactive). For the same compound, the GI50 is > 100 µM (inactive) in test [14], 31.3 µM (inactive) in test [15], 58.7 µM (inactive) in test [16] and 58.1 µM (inactive) in test [17].
